# Biological target: T1, Human SSAO (Homo sapiens, UniProt Q16853)
# T1 construct: Human or mice adipose tissue homogenates, used as a source of SSAO activity; from tissue; host or cells: human adipose tissue homogenate
# T1 sequence (Q16853 1-763): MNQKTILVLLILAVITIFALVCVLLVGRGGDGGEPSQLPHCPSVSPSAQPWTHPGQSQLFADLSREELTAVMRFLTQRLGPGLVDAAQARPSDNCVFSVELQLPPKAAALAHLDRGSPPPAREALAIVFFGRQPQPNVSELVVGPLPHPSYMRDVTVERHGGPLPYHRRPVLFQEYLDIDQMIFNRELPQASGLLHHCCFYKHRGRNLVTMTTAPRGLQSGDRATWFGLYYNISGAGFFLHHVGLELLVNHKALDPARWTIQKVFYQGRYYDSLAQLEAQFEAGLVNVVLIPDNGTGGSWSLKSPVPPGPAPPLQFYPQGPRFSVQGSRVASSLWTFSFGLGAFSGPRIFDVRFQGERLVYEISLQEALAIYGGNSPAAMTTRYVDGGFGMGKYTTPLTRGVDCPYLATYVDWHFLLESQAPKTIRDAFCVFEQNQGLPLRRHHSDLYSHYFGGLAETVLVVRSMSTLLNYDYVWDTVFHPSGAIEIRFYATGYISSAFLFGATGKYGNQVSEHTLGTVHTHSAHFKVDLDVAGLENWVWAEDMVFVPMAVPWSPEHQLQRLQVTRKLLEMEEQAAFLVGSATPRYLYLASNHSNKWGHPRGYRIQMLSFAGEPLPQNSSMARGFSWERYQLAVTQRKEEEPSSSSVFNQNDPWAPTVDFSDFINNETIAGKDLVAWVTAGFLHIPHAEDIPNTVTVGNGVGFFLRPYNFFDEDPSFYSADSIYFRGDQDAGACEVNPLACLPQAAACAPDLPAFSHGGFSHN
# Assay: SSAO activity determination (H2O2 detection with horseradish peroxidase/Amplex Red, benzylamine as substrate)
# Format: biochemical
# Conditions: human adipose tissue homogenates as SSAO source, 20 min preincubation at 37° C., semicarbazide control subtracted
# Procedure: SSAO Activity Determination:
# All assays were performed at 37° C. with SSAO from human or mice adipose tissue. The enzyme activity was measured through detection of hydrogen peroxide formed by the oxidation of benzylamine. This method is based on the horseradish peroxidase catalyzed hydrogen peroxide oxidation of 10-acetyl-3,7-dihydroxyphenoxazine (Molecular Probes A-6550), that produces resorufin a highly fluorescent product (excitation, 545 nm; emission, 590 nm) (Zhou and Panchuk-Voloshina, 1997). Human or mice adipose tissue homogenates, used as a source of SSAO activity, were preincubated in 96 well microplates for 20 min at 37° C. in 180 μL of 200 mM Phosphate buffer and H2O2-detecting mixture containing horseradish peroxidase (final concentration 1 U/mL) and Amplex Red reagent (60 μM) and different concentrations of inhibitors when necessary. Catalytic reaction was initiated by addition of 20 μL of benzylamine as substrate at 10 mM for human homogenates giving final concentrations of 100 μM and 1 mM respectively. Fluorescence intensity of the samples was measured continuously during 1 h (excitation, 545 nm; emission, 590 nm) and H2O2 concentration was calculated from calibration curves generated by serial dilutions of standard H2O2. To evaluate the amount of H2O2 formed specifically via SSAO-mediated reaction, semicarbazide 100 μM was included in the control wells subjected to the same treatments and these values were subtracted from the total amount of H2O2 formed.
# The inhibition was measured as % decrease of the signal compared to a control without inhibitor. Blank values in absence of substrates were subtracted from the fluorescence for each experimental condition. The IC50 shown in Table 1 were calculated with GraphPad Prism 4 program.
row,IC50,Structure (SMILES)
1,0.125 ± 0.002 µM,O=C(O)CCC(NC(=O)Cc1ccc(-c2ccccc2)cc1)C(=O)O (stereo not shown) [compound 26]
2,0.214 ± 0.041 µM,Cc1ccc(C2(C(=O)NC(CCC(=O)NO)C(=O)O)CCCC2)cc1 (stereo not shown) [compound 27]
3,0.229 ± 0.092 µM,O=C(O)CCC(NC(=O)CCCc1ccccc1)C(=O)O (stereo not shown) [compound 28]
4,0.259 ± 0.062 µM,Cc1ccc(CCCC(=O)NC(CCC(=O)O)C(=O)O)cc1 (stereo not shown) [compound 29]
5,0.165 ± 0.007 µM,O=C(O)CCC(NC(=O)c1cc2ccccc2[nH]1)C(=O)O (stereo not shown) [compound 30]
6,0.128 ± 0.03 µM,Cc1ccc(/C=C/C(=O)NC(CCC(=O)O)C(=O)O)cc1 (stereo not shown) [compound 31]
7,0.121 ± 0.047 µM,NC(=O)C1CCCN1C(=O)c1ccc(-c2ccccc2)cc1 (stereo not shown) [compound 32]
8,0.09 ± 0.002 µM,CC(C)(C)c1ccc(C(=O)N2CCCC2C(N)=O)cc1 (stereo not shown) [compound 33]
9,0.147 ± 0.044 µM,NC(=O)C1CCCN1C(=O)c1cc2ccccc2cc1O (stereo not shown) [compound 34]
10,0.16 ± 0.031 µM,NC(=O)C1CCCN1C(=O)c1ccc2ncccc2c1 (stereo not shown) [compound 35]
11,0.078 ± 0.024 µM,NC(=O)C1CCCN1C(=O)c1nccc2ccccc12 (stereo not shown) [compound 36]
12,0.18 ± 0.01 µM,CC(CCc1ccccc1)NC(=O)CCC(=O)NO (stereo not shown) [compound 37]
13,0.14 ± 0.01 µM,O=C(CCC(=O)Nc1ccccc1O)NO [compound 38]
14,0.39 ± 0.04 µM,CC(NC(=O)CCC(=O)NO)c1ccc2ccccc2c1 (stereo not shown) [compound 39]
15,0.202 ± 0.026 µM,Nc1ccc(C(=O)NCc2ccc(F)cc2)cc1O [compound 40]
16,0.25 ± 0.056 µM,Nc1ccc(C(=O)NCc2ccc3ccccc3c2)cc1O [compound 41]
17,0.173 ± 0.009 µM,Nc1ccc(C(=O)NCCOc2ccccc2)cc1O [compound 42]
18,0.337 ± 0.07 µM,CC(NC(=O)c1ccc(N)c(O)c1)c1ccc2ccccc2c1 (stereo not shown) [compound 43]
19,0.185 ± 0.031 µM,Nc1ccc(C(=O)NCCc2ccccc2)cc1O [compound 44]
20,0.146 ± 0.005 µM,Nc1ccc(C(=O)NCCCc2ccccc2)cc1O [compound 45]
21,0.401 ± 0.03 µM,Nc1ccc(C(=O)NCCCCc2ccccc2)cc1O [compound 46]
22,0.41 ± 0.063 µM,Nc1ccc(O)c(C(=O)NCc2ccccc2)c1 [compound 47]
23,0.074 µM,Nc1ccc(O)c(C(=O)NCc2ccccc2O)c1 [compound 48]
24,0.253 ± 0.002 µM,Nc1ccc(O)c(C(=O)NCc2ccc(F)cc2)c1 [compound 49]
25,0.577 ± 0.027 µM,COc1cc(CNC(=O)c2cc(N)ccc2O)cc(OC)c1 [compound 50]
26,0.477 ± 0.064 µM,Nc1ccc(O)c(C(=O)NCc2ccc3ccccc3c2)c1 [compound 51]
27,0.189 ± 0.016 µM,Nc1ccc(O)c(C(=O)NCCOc2ccccc2)c1 [compound 52]
28,0.618 ± 0.118 µM,Nc1ccc(O)c(C(=O)NCCc2ccccc2)c1 [compound 53]
29,0.575 ± 0.023 µM,Nc1ccc(O)c(C(=O)NCCCc2ccccc2)c1 [compound 54]
30,0.762 ± 0.06 µM,Nc1ccc(O)c(C(=O)NCCCCc2ccccc2)c1 [compound 55]

# Further lines, the compound ahead of its results:
row,Structure (SMILES),IC50
1,O=C(NO)C1Cc2ccccc2C1 [compound 2],1.1 ± 0.04 µM
2,O=C(CNC(=O)c1ccc(Br)cc1)NO [compound 3],0.1 ± 0.03 µM
3,O=C(NO)C(CO)NS(=O)(=O)c1ccc(-c2ccccc2)cc1 (stereo not shown) [compound 5],0.25 ± 0.02 µM
4,CC(O)C(NS(=O)(=O)c1ccc(-c2ccccc2)cc1)C(=O)NO (stereo not shown) [compound 6],0.3 ± 0.1 µM
5,NCC(NS(=O)(=O)c1ccc(-c2ccccc2)cc1)C(=O)NO (stereo not shown) [compound 7],1.9 ± 0.2 µM
6,CCCc1ccc(S(=O)(=O)NC(CO)C(=O)NO)cc1 (stereo not shown) [compound 8],0.066 ± 0.001 µM
7,CCCc1ccc(S(=O)(=O)NC(C(=O)NO)C(C)O)cc1 (stereo not shown) [compound 9],0.136 ± 0.04 µM
8,CCC(C)(C)c1ccc(S(=O)(=O)NC(CO)C(=O)NO)cc1 (stereo not shown) [compound 10],0.041 ± 0.008 µM
9,CCC(C)(C)c1ccc(S(=O)(=O)NC(C(=O)NO)C(C)O)cc1 (stereo not shown) [compound 11],0.004 ± 0.0005 µM
10,CCC(C)(C)c1ccc(S(=O)(=O)NCC(=O)NO)cc1 [compound 12],1.57 ± 0.175 µM
11,O=C(NO)C(CO)NS(=O)(=O)c1ccc2ccccc2c1 (stereo not shown) [compound 13],0.067 ± 0.001 µM
12,CC(O)C(NS(=O)(=O)c1ccc2ccccc2c1)C(=O)NO (stereo not shown) [compound 14],0.054 ± 0.007 µM
13,O=C(CNS(=O)(=O)c1ccc2ccccc2c1)NO [compound 15],0.217 ± 0.039 µM
14,O=C(CNS(=O)(=O)c1ccc2ccccc2c1)NO [compound 17],0.217 ± 0.039 µM
15,Cc1ccc(S(=O)(=O)NC(C(=O)NO)C(C)O)cc1 (stereo not shown) [compound 18],0.041 ± 0.001 µM
16,Cc1ccc(S(=O)(=O)NC(CN)C(=O)NO)cc1 (stereo not shown) [compound 19],0.14 ± 0.03 µM
17,CC(O)C(NS(=O)(=O)c1ccc2cccnc2c1)C(=O)NO (stereo not shown) [compound 20],0.789 ± 0.061 µM
18,CN(C)c1cccc2ccc(S(=O)(=O)NC(CO)C(=O)NO)cc12 (stereo not shown) [compound 21],0.097 ± 0.021 µM
19,CC(O)C(NS(=O)(=O)c1ccc2cccc(N(C)C)c2c1)C(=O)NO (stereo not shown) [compound 22],0.369 ± 0.071 µM
20,Cc1ccc(S(=O)(=O)NCc2ccc(C(=O)NO)cc2)cc1 [compound 23],0.7 ± 0.04 µM
21,Cc1ccc(C2(C(=O)NCc3ccc(C(=O)NO)cc3)CCCC2)cc1 [compound 24],0.334 ± 0.08 µM
22,O=C(CCc1ccccc1O)NCc1ccc(C(=O)NO)cc1 [compound 25],0.941 ± 0.026 µM

# Reference: patent US20070066646A1, “Compounds for Inhibiting Copper-Containing Amine Oxidases and Uses Thereof” (GENMEDICA THERAPEUTICS SL, priority 2005, published 2007)
